Molecular target: T1, ULK1 (Homo sapiens, UniProt O75385)
T1 construct: purchased Thermo Fisher Scientific (Life Technologies) SelectScreen
Assay: SelectScreen LanthaScreen
Type: binding
Conditions: 1 µM
Procedure, shortened: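 SelectScreen broad panel; activity (Z'LYTE, Adapta) plus binding formats. ATP: Km app for CSF1R Z'LYTE; 10 for CAMK1 Adapta. Readout = % per kinase.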

T1 sequence (O75385 whole entry): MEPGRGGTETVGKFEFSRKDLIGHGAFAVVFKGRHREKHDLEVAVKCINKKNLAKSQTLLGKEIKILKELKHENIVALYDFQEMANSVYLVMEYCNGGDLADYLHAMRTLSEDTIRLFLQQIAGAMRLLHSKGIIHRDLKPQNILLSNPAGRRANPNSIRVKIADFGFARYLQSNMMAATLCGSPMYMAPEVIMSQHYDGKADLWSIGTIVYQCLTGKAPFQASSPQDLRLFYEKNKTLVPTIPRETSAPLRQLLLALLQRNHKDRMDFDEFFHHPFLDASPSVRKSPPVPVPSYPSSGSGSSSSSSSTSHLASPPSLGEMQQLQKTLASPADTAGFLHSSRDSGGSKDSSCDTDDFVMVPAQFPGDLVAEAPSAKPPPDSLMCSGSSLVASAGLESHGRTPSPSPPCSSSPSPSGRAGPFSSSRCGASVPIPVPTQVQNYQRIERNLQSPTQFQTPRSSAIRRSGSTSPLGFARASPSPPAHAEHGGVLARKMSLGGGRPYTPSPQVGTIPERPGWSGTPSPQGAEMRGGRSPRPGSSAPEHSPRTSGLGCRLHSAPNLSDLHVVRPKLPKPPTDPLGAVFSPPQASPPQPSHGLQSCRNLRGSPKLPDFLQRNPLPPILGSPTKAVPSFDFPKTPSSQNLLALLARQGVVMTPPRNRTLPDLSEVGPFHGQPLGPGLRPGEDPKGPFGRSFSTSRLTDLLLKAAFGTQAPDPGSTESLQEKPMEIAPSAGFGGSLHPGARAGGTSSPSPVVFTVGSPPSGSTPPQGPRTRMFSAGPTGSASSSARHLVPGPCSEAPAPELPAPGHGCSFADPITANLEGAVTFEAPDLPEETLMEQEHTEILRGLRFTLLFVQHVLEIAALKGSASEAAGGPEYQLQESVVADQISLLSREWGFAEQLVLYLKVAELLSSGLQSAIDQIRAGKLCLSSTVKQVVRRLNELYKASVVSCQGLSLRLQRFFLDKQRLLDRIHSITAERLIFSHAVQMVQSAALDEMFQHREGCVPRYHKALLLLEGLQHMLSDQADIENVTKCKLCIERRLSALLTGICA

CN(C(=O)CN1CCOCC1)c1ccc2sc3c(-c4cccc5c(=O)cc(N6CC7CCC(C6)O7)oc45)cccc3c2c1 [NU5455]
% displacement: 1.8%

Source: paper PMC6934184, “Selective DNA-PKcs inhibition extends the therapeutic index of localized radiotherapy and chemotherapy” (The Journal of Clinical Investigation, 2019)
